Assay results: patent US6838253B2, “Regulation of intracellular glucocorticoid concentrations” (The University of Edinburgh, priority 1995, dated 2005)

Assays:
[1] = thymic involution in mice; type: in vivo, mouse; conditions: wild-type control mice; homozygous mutant mice resistant
From the text: Homozygotes for the mutant allele are morphologically intact and fully fertile. No survival bias is conferred by the mutant allele. However, neither 11β-HSD1 mRNA nor enzyme activity (techniques as above) were detected in mutant homozygotes, and reduced mRNA and activity were detected in heterozygotes.

rat hippocampal cells = test: kainic acid neurotoxicity, hippocampal cell survival; type: cell-based; conditions: for kainic acid neurotoxicity: pretreatment with steroid alone
From the text: To assess the influence of 11β-reductase activity on neurotoxicity, cells were exposed to kainic acid and cell survival determined.

[2] = euglycaemic hyperinsulinaemic clamp study with forearm glucose uptake in healthy male volunteers; type: in vivo, human
Method: Seven non-obese (Body Mass Index <25) healthy male Caucasian volunteers on no medication, aged 27-36 years, were given carbenoxolone (100 mg every 8 hours orally) or matched placebo for seven days in a randomised double-blind cross-over design, with phases separated by at least 4 weeks. On the seventh day of each phase euglycaemic hyperinsulinaemic clamp studies with measurement of forearm glucose uptake were performed, as described in detail in reference 16, the content of which is incorporated herein by reference.

[3] = target: T1, hepatic 11β-reductase activity (Homo sapiens, UniProt P28845); test: conversion of oral cortisone to cortisol on first pass as index of 11β-reductase activity in vivo in man
T1 construct: from tissue; host or cells: liver of human volunteers, in vivo
From the text: Consistent with the observations in animal tissues and cultured cells described above, we have established the relative activities of 11β-dehydrogenase and 11β-reductase in vivo in different organs in man by measuring the cortisol/cortisone ratio in plasma from selective venous catheterisations. In most organs the venous effluent contains cortisol and cortisone in a ratio of ˜10:1. However, in renal vein plasma the ratio is 3:1, while in hepatic vein plasma the ratio is 55:1, consistent with potent 11β-dehydrogenase activity due to 11β-HSD2 expression in the kidney and potent 11β-reductase 11β-HSD1 activity in the liver. Moreover, cortisone taken orally, and therefore delivered to the liver via the portal vein, is avidly converted on first pass to cortisol in the peripheral circulation. Using this index of 11β-reductase activity we have shown that, in addition to inhibiting renal 11β-dehydrogenase activity, carbenoxolone (but not glycyrrhetinic acid) inhibits hepatic 11β-reductase activity in vivo in man.

[4] = fasting plasma glucose in rats after 14 days of subcutaneous treatment; type: in vivo, rat; conditions: 1, 3 or 10 mg daily s.c., male Wistar Hans rats
Method: Intact male Wistar Hans rats of body weight 200-250 g were treated with daily subcutaneous injection of 1 ml of either 0.9% saline (vehicle) or carbenoxolone (made up to 1, 3, or 10 mg/ml in 0.9% saline) for 14 days. They were fasted from 4 pm and blood obtained by tail-nick at 9 am the next day. Plasma glucose was measured by a glucose oxidase method on a Beckman CX-3 autoanalyser.

adipocytes = conditions: higher concentrations (mmol/l), without corticosteroid, reference 37; cited from earlier work
11β-reductase activity = target: T2, 11β-reductase activity (Rattus norvegicus, UniProt P16232); test: 11β-reductase activity in whole primary fetal hippocampal cells in culture; type: cell-based; conditions: 10^−6M
T2 construct: endogenous in cells; host or cells: primary cultures of fetal rat hippocampal cells
From the text: Hippocampi were dissected from Wistar rat embryos on day 18.5 of pregnancy and cultured in DMEM with supplements, as described. These cells expressed 11β-HSD1 mRNA, and homogenised cells performed either 11β-dehydrogenase or 11β-reductase activity.

[5] = tested on: corticosteroids receptors; conditions: reference 36; cited from earlier work
5β-reductase = target: T3, 5β-reductase (Homo sapiens, UniProt P51857); conditions: reference 35; cited from earlier work
T3 sequence (P51857 1-326): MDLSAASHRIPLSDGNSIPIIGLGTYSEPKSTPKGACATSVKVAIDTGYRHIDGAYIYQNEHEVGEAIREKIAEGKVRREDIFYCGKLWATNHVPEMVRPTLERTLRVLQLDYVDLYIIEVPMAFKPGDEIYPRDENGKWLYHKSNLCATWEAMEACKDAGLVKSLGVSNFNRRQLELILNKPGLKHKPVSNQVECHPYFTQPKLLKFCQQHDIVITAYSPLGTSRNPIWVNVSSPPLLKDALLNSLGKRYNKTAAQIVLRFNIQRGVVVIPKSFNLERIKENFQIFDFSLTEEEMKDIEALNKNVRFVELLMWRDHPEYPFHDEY

glucocorticoid receptors = target: T4, glucocorticoid receptors (Homo sapiens, UniProt P04150); conditions: reference 29; cited from earlier work
T4 sequence (P04150 1-777): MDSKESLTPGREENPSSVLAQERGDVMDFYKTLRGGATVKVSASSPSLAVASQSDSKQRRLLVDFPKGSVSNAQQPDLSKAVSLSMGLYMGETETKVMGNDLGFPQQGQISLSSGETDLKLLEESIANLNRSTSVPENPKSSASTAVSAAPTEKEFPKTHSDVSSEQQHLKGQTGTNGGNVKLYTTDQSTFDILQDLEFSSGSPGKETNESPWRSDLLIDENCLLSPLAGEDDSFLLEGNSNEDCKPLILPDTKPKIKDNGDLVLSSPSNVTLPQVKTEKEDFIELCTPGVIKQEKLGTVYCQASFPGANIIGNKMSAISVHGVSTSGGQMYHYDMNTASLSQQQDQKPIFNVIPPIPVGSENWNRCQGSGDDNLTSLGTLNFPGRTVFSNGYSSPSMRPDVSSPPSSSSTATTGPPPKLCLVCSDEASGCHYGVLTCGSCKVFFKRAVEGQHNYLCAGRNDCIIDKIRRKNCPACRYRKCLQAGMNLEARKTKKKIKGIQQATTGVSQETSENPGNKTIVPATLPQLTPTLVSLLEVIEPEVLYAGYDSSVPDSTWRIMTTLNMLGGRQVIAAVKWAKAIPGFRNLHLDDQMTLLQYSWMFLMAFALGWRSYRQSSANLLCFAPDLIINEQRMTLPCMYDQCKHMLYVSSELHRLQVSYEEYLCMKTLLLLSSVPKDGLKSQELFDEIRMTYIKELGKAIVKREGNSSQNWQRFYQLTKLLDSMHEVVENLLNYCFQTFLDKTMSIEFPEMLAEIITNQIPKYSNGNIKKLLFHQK

11β-HSD = 11β-HSD activity in tissue homogenates of treated gonadectomised rats; type: in vivo, rat
From the text: (§1) Male Han Wistar rats (200-250 g) underwent gonadectomy and either bilateral adrenalectomy or sham-operation under halothane anaesthesia. For estradiol administration, silicone elastomer capsules (1.95 mm internal diameter, 3.125 mm external diameter) (Dow Corning Corporation, Midland, Mich., USA) containing 17β-estradiol (Sigma, Poole, UK) were implanted subcutaneously. For animals treated for 42 days with estradiol, the capsules were removed and replaced after 21 days. Control animals were implanted with blank capsules. Adrenalectomised rats were maintained on 0.9%. saline. Rats were killed 10, 21 or 42 days after surgery. Liver and hippocampus were removed and dissected on ice for assay of 11β-HSD activity and an aliquot of liver was frozen on dry ice and stored at −80° C. until extraction of RNA.
Tissues were homogenised in Krebs-Ringer bicarbonate buffer with 0.2% glucose, pH 7.4, and assayed as described previously. Homogenates (6.25 μg of liver protein, 250 μg of hippocampal protein) were incubated with 200 μM NADP (Sigma, Poole, UK) and 12 nM [^3H]-corticosterone (specific activity 84 Ci/mmol; Amersham International, Aylesbury, UK) in a total volume of 250 μl with […] 11β-dehydrogenase activity was quantified in this assay as a measure of active enzyme since 11β-reductase is unstable in homogenates. Steroids were extracted with ethyl acetate and separated by HPLC with on-line β courtier. 11β-HSD activity was expressed as conversion of corticosterone to 11-dehydrocorticosterone, after correction for apparent conversion in incubates without enzyme (<3%).

PEPCK mRNA = test: northern analysis of hepatic PEPCK mRNA in treated rats; type: in vivo, rat
From the text: as §1
Total RNA was extracted from liver tissue by the guanidinium thiocyanate method, as described and resuspended in diethylpyrocarbonate-treated water. RNA concentration and purity was assayed spectrophotometrically. 20 μg aliquots were separated on a 1.2% agarose gel containing 2% formaldehyde. RNA was blotted onto nitrocellulose membranes (Hybond-N, Amersham International, UK), prehybridized in 6 ml phosphate buffer (0.2 M NaH2PO4, 0.6 M NaH2PO4, 5 mM EDTA), 3 ml 20% SDS and 100 μg denatured herring testis DNA (Sigma, Poole, UK) for 2 h at 55° C. and hybridized at 55° C. overnight in the same solution containing rat 11β-HSD1 or PEPCK cDNA, labelled with ^32P-dCTP using a random primed DNA labelling kit (Boehringer Mannheim UK Ltd., Lewes, UK). Three 20 min washes were carried out at room temperature in 1×SSC (0.3 M NaCl, 0.03 M sodium citrate), 0.1% SDS followed by a stringent wash at 55° C. for 30 min in 0.3×SSC, 0.1% SDS. Filters were exposed to autoradiographic film for 1-4 days (adjusted to ensure the signal density was within the linear range). […] Optical density was determined using a computer-driven image analysis system (Seescan plc, Cambs, UK). Values were expressed as a percentage of control levels.

11β-HSD1 mRNA = test: northern analysis of hepatic 11β-HSD1 mRNA in treated rats; type: in vivo, rat
From the text: as §1
Total RNA was extracted from liver tissue by the guanidinium thiocyanate method, as described and resuspended in diethylpyrocarbonate-treated water. RNA concentration and purity was assayed spectrophotometrically. 20 μg aliquots were separated on a 1.2% agarose gel containing 2% formaldehyde. […] Optical density was determined using a computer-driven image analysis system (Seescan plc, Cambs, UK). Values were expressed as a percentage of control levels.

[6] = 100 mg every 8 hours orally, seven days
[7] = 100 mg every 8 hours orally, seven days, healthy men

T1 sequence (P28845 whole entry): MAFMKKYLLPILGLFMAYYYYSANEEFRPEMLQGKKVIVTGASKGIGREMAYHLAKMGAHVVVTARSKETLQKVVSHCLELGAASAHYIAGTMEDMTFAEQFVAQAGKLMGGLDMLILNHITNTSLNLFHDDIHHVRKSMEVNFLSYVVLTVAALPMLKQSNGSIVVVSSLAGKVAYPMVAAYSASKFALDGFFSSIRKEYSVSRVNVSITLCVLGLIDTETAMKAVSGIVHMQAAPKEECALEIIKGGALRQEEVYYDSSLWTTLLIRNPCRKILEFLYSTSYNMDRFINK
T2 sequence (P16232 whole entry): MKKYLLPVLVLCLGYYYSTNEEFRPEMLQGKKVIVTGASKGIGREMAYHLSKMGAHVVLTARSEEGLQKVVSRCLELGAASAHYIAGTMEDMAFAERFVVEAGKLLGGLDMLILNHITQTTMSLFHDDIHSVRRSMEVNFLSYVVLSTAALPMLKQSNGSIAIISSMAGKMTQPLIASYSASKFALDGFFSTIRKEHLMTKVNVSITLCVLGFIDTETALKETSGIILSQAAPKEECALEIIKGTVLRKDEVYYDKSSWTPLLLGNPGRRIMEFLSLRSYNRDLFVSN

C[C@]12CC(=O)[C@H]3[C@@H](CCC4=CC(=O)CC[C@@]43C)[C@@H]1CC[C@@H]2C(=O)CO [11-dehydrocorticosterone]
thymic involution [1]: thymic involution seen
kainic acid neurotoxicity (rat hippocampal cells): potentiated

CC1(C)[C@@H](OC(=O)CCC(=O)O)CC[C@]2(C)[C@H]3C(=O)C=C4[C@@H]5C[C@@](C)(C(=O)O)CC[C@]5(C)CC[C@@]4(C)[C@]3(C)CC[C@@H]12 [carbenoxolone, 3β-(3-carboxypropionyloxy)-11-oxo-olean-2-en 30-oic acid]
blood pressure [2, 6]: not elevated
forearm blood flow [2, 6]: not elevated
fasting glucose concentration [2, 7]: no change
fasting insulin concentration [2, 7]: fall
plasma renin, aldosterone, and potassium concentrations ([2]; consequent on renal effects): suppressed
peripheral glucose uptake as measured by forearm glucose uptake ([2]; euglycaemic clamp, day 7, versus placebo): No difference was detected
effect on 11β-reductase in vivo [3]: inhibits
hepatic 11β-reductase activity in vivo in man ([3]; oral cortisone converted to cortisol, man): inhibits
fasting glucose concentrations [4]: dose-dependent fall
action of insulin in adipocytes (adipocytes): antagonises
11β-reductase activity in whole hippocampal cells (11β-reductase activity): almost abolished
potentiating effect of 11-dehydrocorticosterone on kainic acid neurotoxicity (rat hippocampal cells; with 11-dehydrocorticosterone): protected the cells
effect of corticosterone on kainic acid neurotoxicity (rat hippocampal cells; with corticosterone): did not alter
affinity for corticosteroids receptors in vitro [5]: low affinity
5β-reductase inhibition (5β-reductase): inhibits

C[C@]12C[C@H](O)[C@H]3[C@@H](CCC4=CC(=O)CC[C@@]43C)[C@@H]1CC[C@@H]2C(=O)CO [corticosterone]
kainic acid neurotoxicity (rat hippocampal cells): potentiated

C[C@]12CCC(=O)C=C1CC[C@@H]1[C@@H]2[C@@H](O)C[C@@]2(C)[C@H]1CC[C@]2(O)C(=O)CO [cortisol]
affinity of glucocorticoid receptors relative to mineralocorticoid receptors (glucocorticoid receptors): 10-40 times lower

C[C@]12CC[C@@H]3c4ccc(O)cc4CC[C@H]3[C@@H]1CC[C@@H]2O [estradiol, 17β-estradiol]
hepatic 11β-HSD activity (11β-HSD; 10, 21 and 42 days, gonadectomised male rats): marked decreases
11β-HSD activity in the hippocampus (11β-HSD; 21 or 42 days): not altered
conversion of corticosterone to 11-dehydrocorticosterone in liver homogenates (11β-HSD; 42 days of treatment, prolonged (60 min) incubation): 12.2±14.7%
liver 11β-HSD1 activity in adrenalectomised rats (11β-HSD; adrenalectomised, 21 days): reduced
PEPCK mRNA levels in adrenalectomised rats (PEPCK mRNA; adrenalectomised, 21 days, compared with adrenalectomy alone): increased
hepatic PEPCK gene expression (PEPCK mRNA; after 21 days, adrenally intact): decreased
PEPCK mRNA expression (PEPCK mRNA; after 42 days): significantly reduced
liver 11β-HSD1 mRNA in adrenalectomised rats (11β-HSD1 mRNA; adrenalectomised, 21 days): reduced
hepatic 11β-HSD1 mRNA expression (11β-HSD1 mRNA; after 21 and 42 days, gonadectomised male rats): undetectable levels

CC1(C)[C@@H](O)CC[C@]2(C)[C@H]3C(=O)C=C4[C@@H]5C[C@@](C)(C(=O)O)CC[C@]5(C)CC[C@@]4(C)[C@]3(C)CC[C@@H]12 [glycyrrhetinic acid]
effect on 11β-reductase in vivo [3]: no effect
